Assay results published in publication PMC2824119 (Cancer Chemotherapy and Pharmacology, 2010).

Tests used:
CYP1A2 [1] = target: T1, CYP1A2 (Homo sapiens, UniProt P05177); details: azacitidine at 70 μM or lower concentrations
T1 sequence (P05177 1-516): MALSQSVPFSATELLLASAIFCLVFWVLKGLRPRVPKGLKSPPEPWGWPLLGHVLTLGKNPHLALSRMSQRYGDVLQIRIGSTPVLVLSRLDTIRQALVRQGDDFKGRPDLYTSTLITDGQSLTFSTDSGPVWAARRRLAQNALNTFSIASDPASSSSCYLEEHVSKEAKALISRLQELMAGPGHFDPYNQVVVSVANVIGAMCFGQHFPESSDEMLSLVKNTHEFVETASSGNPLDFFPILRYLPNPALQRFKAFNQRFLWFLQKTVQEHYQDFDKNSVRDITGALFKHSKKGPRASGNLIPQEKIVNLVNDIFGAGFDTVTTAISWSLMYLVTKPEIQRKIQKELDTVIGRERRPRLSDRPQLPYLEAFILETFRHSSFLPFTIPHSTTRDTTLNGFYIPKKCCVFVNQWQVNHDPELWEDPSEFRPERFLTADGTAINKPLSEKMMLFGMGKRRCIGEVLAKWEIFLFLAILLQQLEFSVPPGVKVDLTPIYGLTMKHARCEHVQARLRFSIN

CYP1A2 [2] = test system: CYP1A2
CYP3A4/5 = details: hepatocytes
CYP2E1 = CYP2E1 (Homo sapiens, UniProt P05181); experiment: CYP2E1 inhibition in human liver microsomes; format: in vitro ADME
CYP2E1, sequence (P05181 whole entry): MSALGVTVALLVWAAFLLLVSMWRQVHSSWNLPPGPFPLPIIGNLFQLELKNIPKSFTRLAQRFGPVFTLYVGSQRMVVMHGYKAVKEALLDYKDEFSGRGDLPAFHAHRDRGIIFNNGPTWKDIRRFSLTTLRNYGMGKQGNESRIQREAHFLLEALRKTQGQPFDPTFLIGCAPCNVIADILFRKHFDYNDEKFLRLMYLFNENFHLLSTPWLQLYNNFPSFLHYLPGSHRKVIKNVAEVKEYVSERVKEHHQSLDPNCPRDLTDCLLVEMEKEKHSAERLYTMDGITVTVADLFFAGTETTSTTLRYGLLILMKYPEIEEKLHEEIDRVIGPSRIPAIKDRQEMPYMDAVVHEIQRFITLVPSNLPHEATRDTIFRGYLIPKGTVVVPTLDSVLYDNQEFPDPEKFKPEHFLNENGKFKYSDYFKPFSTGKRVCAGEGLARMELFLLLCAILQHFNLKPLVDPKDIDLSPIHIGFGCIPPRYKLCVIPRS

## Nc1ncn([C@@H]2O[C@H](CO)[C@@H](O)[C@H]2O)c(=O)n1 [Azacitidine]
CYP1A2 [1]
  Inhibition of CYP1A2: no inhibition
CYP1A2 [2]; azacitidine 100 μM, not statistically significant
  Decrease of CYP1A2-mediated 7-ethoxyresorufin O-dealkylation: 29%
CYP1A2 [2]; clinically relevant concentrations, once daily for three consecutive days
  Induction of CYP1A2 activity: did not induce
CYP3A4/5
  Induction of CYP3A4/5 activity: did not induce
CYP3A4/5; human
  Decrease of CYP3A4/5-catalyzed testosterone 6β-hydroxylation: 78%
CYP2E1; azacitidine at 70 μM or lower concentrations
  Inhibition of CYP2E1: no inhibition
CYP2E1; azacitidine at 100 μM, chlorzoxazone 40 μM, HLM 0.8 mg/mL
  Percent inhibition: < 30%
